# Data taken from article PMC8162404, “Proteomimetic surface fragments distinguish targets by function” (Chemical Science, 2020).
# Target: T1, CaM (Bos taurus, UniProt P62157)
# T1 construct: made in house; host or cells: E. coli BL21 (DE3)
# Test: Pull-down assay with immobilized protein and LSM libraries
# Format: binding, bovine
# Details: H12 library; 1:2 stoichiometry assumed; read-out: Surface mapping KD (apparent)
# Description: Pull-down assays with immobilized test proteins and foldameric LSM libraries were carried out. Proteins were equilibrated with LSM probes, and equilibrium bound fractions (FB) were determined from the unbound fractions measured by HPLC-MS methods. Hits were corrected with background binding of the resin. The protocol allowed all binding events to equilibrate irrespective of affinity, specificity, and binding kinetics. This was essential to judge overall druggability and promiscuity. Importantly, the concentration of protein and the total concentration of foldameric LSMs were equimolar, which minimized competition between the probes. This experimental setup approximated independent binding of individual library members. Results were visualized as heat maps of dissociation constants (Fig. 3).
# Pull-down assay and data analysis
# Pull-down assay. LSM sublibraries were screened separately as previously described.(2) Experiments were performed in the following buffers: (i) 20 mM pH 7.4 HEPES, 150 mM NaCl, 5 mM CaCl2 for CaM; (ii) 50 mM pH 7.4 HEPES, 150 mM NaCl, 1 mM TCEP, 1 mM CaCl2 for S100 proteins; (iii) 20 mM pH 7.4 HEPES, 150 mM NaCl, 1 mM TCEP for Gal-1 and (iv) 20 mM pH 7.4 HEPES, 150 mM NaCl for RecQ-WH. Assays were performed in paper filter spin cups (Thermo Scientific) with sample volumes of 100 µl. Hexahistidine-tagged proteins were immobilized on previously washed Co-NTA resin (TALON, Takara Bio USA, Inc., […]
# LSM sublibrary was added, in which each of the 64 library members were used at a concentration of 1 µM. Samples were incubated at room temperature for 30 min with shaking at 100 rpm. Then, samples were centrifuged at 1000 rpm for 2 min and washed with 100 µl pull-down buffer to remove unbound compounds.
# The control experiments were performed using the same compounds and the resin but without the immobilized protein. In case of competitive assays, competitor peptides were added to LSM sublibrary samples in 200 µM final concentration. In the case of Gal-1, lactose (competitor) was used in a concentration of 10 mM. Experiments were performed at least twice. Mean […]
# LC-MS methods and parameters. HPLC/ESI-MS analysis was used to characterize the samples from the pull-down assay. LC-MS analysis was performed with a Thermo Scientific Dionex UltiMate 3000 HPLC system interfaced to an LTQ ion trap mass spectrometer (Thermo Electron Corp., San Jose, CA, USA). Samples were injected onto an Aeris Widepore XB-C18 (250 x 4.6 mm) analytical HPLC column using gradient elution 5-80 % solution B during 25 minutes. For pull-down samples, eluent composition was 0.1% acetic acid in distilled water (Solution A) and 0.1% acetic acid in acetonitrile (solution B). Mass spectra were acquired in full scan mode from 200 to 2000 m/z range. For overlapping peaks, selective reaction monitoring (SRM) was […]
# MS data analysis. Thermo Xcalibur 2.2 software was used for peak identification and integration. The majority of the foldameric fragments could be resolved independently via HPLC-MS/MS measurements based on molecular weight, MS fragmentation pattern and retention time. Peaks of some foldamers with β3-hIle or β3-hLeu in position R2 could not be resolved, these were integrated and averaged. In the processing method, each sample component was associated to a chromatographic peak based on previously identified mass (m/z) and retention time (ref (2) and Table S7-10). Using ICIS peak detection algorithm, the general detection and integration criteria were: smoothing points: 5, baseline window: 80, area noise factor: 5, peak noise factor: 10. Using these processing setups, all raw data files were reprocessed together and analyzed. Errors in peak identification during the automatic processing were corrected manually.
# Calculation of the discussed parameters
# 1. Bound fractions (FB.) were calculated from the HPLC-MS intensity loss of the LSM probes compared to the control where no protein was immobilized to the resin: […]
row,Structure (SMILES),Kd
1,C[C@@H](CC(=O)N[C@H]1CCC[C@@H]1C(=O)N[C@H]1CCC[C@@H]1C(N)=O)NC(=O)[C@H]1CCC[C@@H]1NC(=O)[C@H]1CCC[C@@H]1NC(=O)C[C@H](CC(N)=O)NC(=O)[C@H]1CCC[C@@H]1NC(=O)[C@H]1CCC[C@@H]1N [H12 NA],447 µM
2,CC(C)C[C@@H](CC(=O)N[C@H]1CCC[C@@H]1C(=O)N[C@H]1CCC[C@@H]1C(N)=O)NC(=O)[C@H]1CCC[C@@H]1NC(=O)[C@H]1CCC[C@@H]1NC(=O)C[C@@H](NC(=O)[C@H]1CCC[C@@H]1NC(=O)[C@H]1CCC[C@@H]1N)[C@@H](C)O [H12 TL],110 µM
3,NC(=O)C[C@@H](CC(=O)N[C@H]1CCC[C@@H]1C(=O)N[C@H]1CCC[C@@H]1C(=O)N[C@@H](CC(=O)O)CC(=O)N[C@H]1CCC[C@@H]1C(=O)N[C@H]1CCC[C@@H]1C(N)=O)NC(=O)[C@H]1CCC[C@@H]1NC(=O)[C@H]1CCC[C@@H]1N [H12 ND],400 µM
4,C[C@@H](CC(=O)N[C@H]1CCC[C@@H]1C(=O)N[C@H]1CCC[C@@H]1C(N)=O)NC(=O)[C@H]1CCC[C@@H]1NC(=O)[C@H]1CCC[C@@H]1NC(=O)C[C@@H](NC(=O)[C@H]1CCC[C@@H]1NC(=O)[C@H]1CCC[C@@H]1N)[C@@H](C)O [H12 TA],392 µM
5,CSCC[C@@H](CC(=O)N[C@H]1CCC[C@@H]1C(=O)N[C@H]1CCC[C@@H]1C(N)=O)NC(=O)[C@H]1CCC[C@@H]1NC(=O)[C@H]1CCC[C@@H]1NC(=O)C[C@H](CC(N)=O)NC(=O)[C@H]1CCC[C@@H]1NC(=O)[C@H]1CCC[C@@H]1N [H12 NM],378 µM
6,CC[C@H](C)[C@@H](CC(=O)N[C@H]1CCC[C@@H]1C(=O)N[C@H]1CCC[C@@H]1C(N)=O)NC(=O)[C@H]1CCC[C@@H]1NC(=O)[C@H]1CCC[C@@H]1NC(=O)C[C@@H](NC(=O)[C@H]1CCC[C@@H]1NC(=O)[C@H]1CCC[C@@H]1N)[C@@H](C)O [H12 TI],110 µM
7,NC(=O)[C@H]1CCC[C@@H]1NC(=O)[C@H]1CCC[C@@H]1NC(=O)C[C@H](Cc1ccc(O)cc1)NC(=O)[C@H]1CCC[C@@H]1NC(=O)[C@H]1CCC[C@@H]1NC(=O)C[C@H](CO)NC(=O)[C@H]1CCC[C@@H]1NC(=O)[C@H]1CCC[C@@H]1N [H12 SY],351 µM
8,NC(=O)C[C@@H](CC(=O)N[C@H]1CCC[C@@H]1C(=O)N[C@H]1CCC[C@@H]1C(=O)N[C@H](CC(=O)N[C@H]1CCC[C@@H]1C(=O)N[C@H]1CCC[C@@H]1C(N)=O)Cc1ccc(O)cc1)NC(=O)[C@H]1CCC[C@@H]1NC(=O)[C@H]1CCC[C@@H]1N [H12 NY],364 µM
9,NC(=O)[C@H]1CCC[C@@H]1NC(=O)[C@H]1CCC[C@@H]1NC(=O)C[C@H](CO)NC(=O)[C@H]1CCC[C@@H]1NC(=O)[C@H]1CCC[C@@H]1NC(=O)C[C@H](CO)NC(=O)[C@H]1CCC[C@@H]1NC(=O)[C@H]1CCC[C@@H]1N [H12 SS],480 µM
10,CSCC[C@@H](CC(=O)N[C@H]1CCC[C@@H]1C(=O)N[C@H]1CCC[C@@H]1C(N)=O)NC(=O)[C@H]1CCC[C@@H]1NC(=O)[C@H]1CCC[C@@H]1NC(=O)C[C@H](CO)NC(=O)[C@H]1CCC[C@@H]1NC(=O)[C@H]1CCC[C@@H]1N [H12 SM],340 µM
11,CC(C)[C@@H](CC(=O)N[C@H]1CCC[C@@H]1C(=O)N[C@H]1CCC[C@@H]1C(N)=O)NC(=O)[C@H]1CCC[C@@H]1NC(=O)[C@H]1CCC[C@@H]1NC(=O)C[C@H](CO)NC(=O)[C@H]1CCC[C@@H]1NC(=O)[C@H]1CCC[C@@H]1N [H12 SV],299 µM
12,C[C@@H](O)[C@@H](CC(=O)N[C@H]1CCC[C@@H]1C(=O)N[C@H]1CCC[C@@H]1C(=O)N[C@H](CC(=O)N[C@H]1CCC[C@@H]1C(=O)N[C@H]1CCC[C@@H]1C(N)=O)Cc1ccc(O)cc1)NC(=O)[C@H]1CCC[C@@H]1NC(=O)[C@H]1CCC[C@@H]1N [H12 TY],132 µM
13,CC(C)[C@@H](CC(=O)N[C@H]1CCC[C@@H]1C(=O)N[C@H]1CCC[C@@H]1C(N)=O)NC(=O)[C@H]1CCC[C@@H]1NC(=O)[C@H]1CCC[C@@H]1NC(=O)C[C@@H](NC(=O)[C@H]1CCC[C@@H]1NC(=O)[C@H]1CCC[C@@H]1N)[C@@H](C)O [H12 TV],208 µM
14,CC(C)[C@@H](CC(=O)N[C@H]1CCC[C@@H]1C(=O)N[C@H]1CCC[C@@H]1C(N)=O)NC(=O)[C@H]1CCC[C@@H]1NC(=O)[C@H]1CCC[C@@H]1NC(=O)C[C@H](CC(N)=O)NC(=O)[C@H]1CCC[C@@H]1NC(=O)[C@H]1CCC[C@@H]1N [H12 NV],460 µM
15,CC[C@H](C)[C@@H](CC(=O)N[C@H]1CCC[C@@H]1C(=O)N[C@H]1CCC[C@@H]1C(N)=O)NC(=O)[C@H]1CCC[C@@H]1NC(=O)[C@H]1CCC[C@@H]1NC(=O)C[C@H](CC(N)=O)NC(=O)[C@H]1CCC[C@@H]1NC(=O)[C@H]1CCC[C@@H]1N [H12 NI],214 µM
16,CC(C)C[C@@H](CC(=O)N[C@H]1CCC[C@@H]1C(=O)N[C@H]1CCC[C@@H]1C(N)=O)NC(=O)[C@H]1CCC[C@@H]1NC(=O)[C@H]1CCC[C@@H]1NC(=O)C[C@H](CC(N)=O)NC(=O)[C@H]1CCC[C@@H]1NC(=O)[C@H]1CCC[C@@H]1N [H12 NL],214 µM
17,CSCC[C@@H](CC(=O)N[C@H]1CCC[C@@H]1C(=O)N[C@H]1CCC[C@@H]1C(N)=O)NC(=O)[C@H]1CCC[C@@H]1NC(=O)[C@H]1CCC[C@@H]1NC(=O)C[C@H](CCC(N)=O)NC(=O)[C@H]1CCC[C@@H]1NC(=O)[C@H]1CCC[C@@H]1N [H12 QM],364 µM
18,C[C@@H](O)[C@@H](CC(=O)N[C@H]1CCC[C@@H]1C(=O)N[C@H]1CCC[C@@H]1C(=O)N[C@@H](CCC(N)=O)CC(=O)N[C@H]1CCC[C@@H]1C(=O)N[C@H]1CCC[C@@H]1C(N)=O)NC(=O)[C@H]1CCC[C@@H]1NC(=O)[C@H]1CCC[C@@H]1N [H12 TQ],447 µM

# Target: T2, Gal-1 (Homo sapiens, UniProt P09382)
# T2 construct: made in house; host or cells: E. coli BL21(DE3)
# T2 sequence (P09382 whole entry): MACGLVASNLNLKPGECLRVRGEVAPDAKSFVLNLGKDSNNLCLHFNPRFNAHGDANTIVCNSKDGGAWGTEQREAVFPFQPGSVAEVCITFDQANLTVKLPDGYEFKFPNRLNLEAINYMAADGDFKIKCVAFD
# Test: as above
# Format: binding
# Details: H12 library; 1:1 binding assumed; read-out: Surface mapping KD (apparent)
# Method in brief: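 His-tagged protein immobilized on Co-NTA resin (64 µM) in 20 mM HEPES pH 7.4, 150 mM NaCl, equilibrated 30 min at room temperature with foldamer LSM sublibraries at equimolar total concentration. Unbound fractions quantified by HPLC-MS versus protein-free resin control; apparent KD assumes 1:1 binding.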
row,Structure (SMILES),Kd
1,NCCCC[C@@H](CC(=O)N[C@H]1CCC[C@@H]1C(=O)N[C@H]1CCC[C@@H]1C(N)=O)NC(=O)[C@H]1CCC[C@@H]1NC(=O)[C@H]1CCC[C@@H]1NC(=O)C[C@H](CCCCN)NC(=O)[C@H]1CCC[C@@H]1NC(=O)[C@H]1CCC[C@@H]1N [H12 KK],230 µM
2,NC(=O)CC[C@@H](CC(=O)N[C@H]1CCC[C@@H]1C(=O)N[C@H]1CCC[C@@H]1C(N)=O)NC(=O)[C@H]1CCC[C@@H]1NC(=O)[C@H]1CCC[C@@H]1NC(=O)C[C@H](Cc1c[nH]c2ccccc12)NC(=O)[C@H]1CCC[C@@H]1NC(=O)[C@H]1CCC[C@@H]1N [H12 WQ],304 µM
3,C[C@@H](O)[C@@H](CC(=O)N[C@H]1CCC[C@@H]1C(=O)N[C@H]1CCC[C@@H]1C(N)=O)NC(=O)[C@H]1CCC[C@@H]1NC(=O)[C@H]1CCC[C@@H]1NC(=O)C[C@H](CCCNC(=N)N)NC(=O)[C@H]1CCC[C@@H]1NC(=O)[C@H]1CCC[C@@H]1N [H12 RT],213 µM

# Target: T3, S100B (Homo sapiens, UniProt P04271)
# T3 construct: made in house; host or cells: Escherichia coli BL21(DE3)
# T3 sequence (P04271 1-92): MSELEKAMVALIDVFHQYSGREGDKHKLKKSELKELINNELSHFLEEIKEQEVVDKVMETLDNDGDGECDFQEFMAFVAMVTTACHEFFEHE
# Test: as above
# Format: binding
# Details: H12 library; 1:1 binding assumed; read-out: Surface mapping KD (apparent)
# Method in brief: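 Buffers were HEPES pH 7.4 with 150 mM NaCl, plus 1 mM TCEP and 1 mM CaCl2 (50 mM HEPES) for S100A4 and S100B, 1 mM TCEP for Gal-1, and no additive for RecQ-WH. Immobilized protein at 64 µM was equilibrated 30 min with the LSM sublibrary, and unbound probes were measured by LC-MS.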
row,Structure (SMILES),Kd
1,NCCCC[C@@H](CC(=O)N[C@H]1CCC[C@@H]1C(=O)N[C@H]1CCC[C@@H]1C(N)=O)NC(=O)[C@H]1CCC[C@@H]1NC(=O)[C@H]1CCC[C@@H]1NC(=O)C[C@H](CCCCN)NC(=O)[C@H]1CCC[C@@H]1NC(=O)[C@H]1CCC[C@@H]1N [H12 KK],177 µM
2,NC(=O)CC[C@@H](CC(=O)N[C@H]1CCC[C@@H]1C(=O)N[C@H]1CCC[C@@H]1C(N)=O)NC(=O)[C@H]1CCC[C@@H]1NC(=O)[C@H]1CCC[C@@H]1NC(=O)C[C@H](Cc1c[nH]c2ccccc12)NC(=O)[C@H]1CCC[C@@H]1NC(=O)[C@H]1CCC[C@@H]1N [H12 WQ],53 µM
3,C[C@@H](O)[C@@H](CC(=O)N[C@H]1CCC[C@@H]1C(=O)N[C@H]1CCC[C@@H]1C(N)=O)NC(=O)[C@H]1CCC[C@@H]1NC(=O)[C@H]1CCC[C@@H]1NC(=O)C[C@H](CCCNC(=N)N)NC(=O)[C@H]1CCC[C@@H]1NC(=O)[C@H]1CCC[C@@H]1N [H12 RT],133 µM
